Measurements taken from PMC12814364 (Journal of the American Chemical Society, 2025).
“Also recorded” adds a separate entry of the source. Where two headings read alike, the source gives them in different places.

Assays:
[1] = biological target: T1, HBHA110–199 (Mycobacterium tuberculosis, UniProt P9WIP9); experiment: ITC binding of HS hexadecasaccharides with HBHA110–199
[2] = biological target: T1, HBHA110–199; conditions: cited from earlier work
[3] = biological target: T2, full-length HBHA (Mycobacterium tuberculosis, UniProt P9WIP9); experiment: Far-UV circular dichroism of full-length HBHA with added sugar; conditions: varying equivalents added; negative control
T2 sequence (P9WIP9 1-199): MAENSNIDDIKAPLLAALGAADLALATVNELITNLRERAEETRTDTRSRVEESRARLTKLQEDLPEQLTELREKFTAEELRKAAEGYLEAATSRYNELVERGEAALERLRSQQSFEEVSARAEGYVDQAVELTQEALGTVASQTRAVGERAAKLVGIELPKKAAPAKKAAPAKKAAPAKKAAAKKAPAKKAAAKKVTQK

## O=C(O)[C@@H]1O[C@@H](O[C@H]2[C@H](O)[C@@H](NS(=O)(=O)O)[C@@H](O[C@H]3[C@H](O)[C@@H](OS(=O)(=O)O)[C@H]4OC[C@@H]3O4)O[C@@H]2COS(=O)(=O)O)[C@H](OS(=O)(=O)O)[C@@H](O)[C@@H]1O[C@H]1O[C@H](COS(=O)(=O)O)[C@@H](O[C@@H]2O[C@@H](C(=O)O)[C@@H](O[C@H]3O[C@H](COS(=O)(=O)O)[C@@H](O[C@@H]4O[C@@H](C(=O)O)[C@@H](O[C@H]5O[C@H](COS(=O)(=O)O)[C@@H](O)[C@H](O)[C@H]5NS(=O)(=O)O)[C@H](O)[C@H]4OS(=O)(=O)O)[C@H](O)[C@H]3NS(=O)(=O)O)[C@H](O)[C@H]2OS(=O)(=O)O)[C@H](O)[C@H]1NS(=O)(=O)O [HS8]
[1]; 25 °C, Tris buffer pH 7.6
  n (sugar-to-protein binding ratio): 0.56 ± 0.01
  ΔG: –7.68 ± 0.08 kcal/mol
  ΔH: 5.38 ± 0.05 kcal/mol
  –TΔS: –13.05 ± 0.07 kcal/mol
[1]; Tris buffer pH 7.6, 25 °C, two trials, average ± standard deviation, read-out: dissociation constant, KD
  Kd: 2.4 ± 0.3 µM
[2]; Average of Repeat I P(KKAA), residue 160-164, read-out: Dissociation constant from NMR cross-peak movement, average
  Kd: 24.5 µM
[2]; Average of Repeat II P(AKKAA), residue 165-170, read-out: Dissociation constant from NMR cross-peak movement, average
  Kd: 11.8 µM
[2]; Average of Repeat III P(AKKAA), residue 171-176, read-out: Dissociation constant from NMR cross-peak movement, average
  Kd: 6.9 µM
[2]; Average of Repeat IV P(AKKAAAKKA), residue 177-186, read-out: Dissociation constant from NMR cross-peak movement, average
  Kd: 6.2 µM
[2]; Average of Repeat V P(AKKAAAKKV), residue 187-196, read-out: Dissociation constant from NMR cross-peak movement, average
  Kd: 4.6 µM
[2]; protein-to-sugar molar ratio 1:2, all residues, reported previously, ref Huang et al., 2017
  average Δδresidue (weighted chemical shift deviation) of HBHA110–199: 0.019 ppm
[2]; residue A163, Repeat I, read-out: Dissociation constant from NMR cross-peak movement
  Kd: 20.7 µM
[2]; residue A164, Repeat I, read-out: Dissociation constant from NMR cross-peak movement
  Kd: 22.2 µM
[2]; residue A166, Repeat II, read-out: Dissociation constant from NMR cross-peak movement
  Kd: 14.4 µM
[2]; residue A169, Repeat II, read-out: Dissociation constant from NMR cross-peak movement
  Kd: 14.6 µM
[2]; residue A170, Repeat II, read-out: Dissociation constant from NMR cross-peak movement
  Kd: 8.3 µM
[2]; residue A172, Repeat III, read-out: Dissociation constant from NMR cross-peak movement
  Kd: 10.3 µM
[2]; residue A175, Repeat III, read-out: Dissociation constant from NMR cross-peak movement
  Kd: 8.5 µM
[2]; residue A176, Repeat III, read-out: Dissociation constant from NMR cross-peak movement
  Kd: 5 µM
[2]; residue A178, Repeat IV, read-out: Dissociation constant from NMR cross-peak movement
  Kd: 4.8 µM
[2]; residue A181, Repeat IV, read-out: Dissociation constant from NMR cross-peak movement
  Kd: 4.8 µM
[2]; residue A182, Repeat IV, read-out: Dissociation constant from NMR cross-peak movement
  Kd: 4.6 µM
[2]; residue A183, Repeat IV, read-out: Dissociation constant from NMR cross-peak movement
  Kd: 4.6 µM
[2]; residue A186, Repeat IV, read-out: Dissociation constant from NMR cross-peak movement
  Kd: 3.1 µM
[2]; residue A188, Repeat V, read-out: Dissociation constant from NMR cross-peak movement
  Kd: 4.8 µM
[2]; residue A191, Repeat V, read-out: Dissociation constant from NMR cross-peak movement
  Kd: 5.3 µM
[2]; residue A192, Repeat V, read-out: Dissociation constant from NMR cross-peak movement
  Kd: 4.6 µM
[2]; residue A193, Repeat V, read-out: Dissociation constant from NMR cross-peak movement
  Kd: 4.8 µM
[2]; residue K161, Repeat I, read-out: Dissociation constant from NMR cross-peak movement
  Kd: 9.8 µM
[2]; residue K162, Repeat I, read-out: Dissociation constant from NMR cross-peak movement
  Kd: 45.3 µM
[2]; residue K167, Repeat II, read-out: Dissociation constant from NMR cross-peak movement
  Kd: 4.2 µM
[2]; residue K168, Repeat II, read-out: Dissociation constant from NMR cross-peak movement
  Kd: 17.2 µM
[2]; residue K173, Repeat III, read-out: Dissociation constant from NMR cross-peak movement
  Kd: 4.2 µM
[2]; residue K174, Repeat III, read-out: Dissociation constant from NMR cross-peak movement
  Kd: 6.6 µM
[2]; residue K179, Repeat IV, read-out: Dissociation constant from NMR cross-peak movement
  Kd: 6.6 µM
[2]; residue K180, Repeat IV, read-out: Dissociation constant from NMR cross-peak movement
  Kd: 4.1 µM
[2]; residue K184, Repeat IV, read-out: Dissociation constant from NMR cross-peak movement
  Kd: 18.3 µM
[2]; residue K185, Repeat IV, read-out: Dissociation constant from NMR cross-peak movement
  Kd: 4.5 µM
[2]; residue K189, Repeat V, read-out: Dissociation constant from NMR cross-peak movement
  Kd: 5.9 µM
[2]; residue K190, Repeat V, read-out: Dissociation constant from NMR cross-peak movement
  Kd: 4.1 µM
[2]; residue K194, Repeat V, read-out: Dissociation constant from NMR cross-peak movement
  Kd: 4.9 µM
[2]; residue K195, Repeat V, read-out: Dissociation constant from NMR cross-peak movement
  Kd: 4.6 µM
[2]; residue V196, Repeat V, read-out: Dissociation constant from NMR cross-peak movement
  Kd: 2.7 µM

## CC(=O)N[C@H]1[C@@H](O[C@H]2[C@H](O)[C@@H](O)[C@H]3OC[C@@H]2O3)O[C@H](CO)[C@@H](O[C@@H]2O[C@@H](C(=O)O)[C@@H](O[C@H]3O[C@H](CO)[C@@H](O[C@@H]4O[C@@H](C(=O)O)[C@@H](O[C@H]5O[C@H](CO)[C@@H](O[C@@H]6O[C@@H](C(=O)O)[C@@H](O[C@H]7O[C@H](CO)[C@@H](O[C@@H]8O[C@@H](C(=O)O)[C@@H](O[C@H]9O[C@H](CO)[C@@H](O[C@@H]%10O[C@@H](C(=O)O)[C@@H](O[C@H]%11O[C@H](CO)[C@@H](O[C@@H]%12O[C@@H](C(=O)O)[C@@H](O[C@H]%13O[C@H](CO)[C@@H](O[C@@H]%14O[C@@H](C(=O)O)[C@@H](O[C@H]%15O[C@H](CO)[C@@H](O)[C@H](O)[C@H]%15NC(C)=O)[C@H](O)[C@H]%14O)[C@H](O)[C@H]%13NC(C)=O)[C@H](O)[C@H]%12O)[C@H](O)[C@H]%11NC(C)=O)[C@H](O)[C@H]%10O)[C@H](O)[C@H]9NC(C)=O)[C@H](O)[C@H]8O)[C@H](O)[C@H]7NC(C)=O)[C@H](O)[C@H]6O)[C@H](O)[C@H]5NC(C)=O)[C@H](O)[C@H]4O)[C@H](O)[C@H]3NC(C)=O)[C@H](O)[C@H]2O)[C@@H]1O [compound 20]
[3]
  conformational change of full-length HBHA (CD): did not induce any significant conformational change
[1]; Tris buffer pH 7.6, 25 °C, two trials, average ± standard deviation
  dissociation constant, KD: no detectable binding; also recorded: no binding detected
